Assay results published in patent publication US5298494A, “Monosaccharides having anti-proliferation and anti-inflammatory activity, compositions and uses thereof” (Greenwich Pharmaceuticals Incorporated, priority 1993, dated 1994).
Entries after “also recorded” stand apart in the source; their conditions may differ. Like-named read-outs stand apart in the source and are kept apart here.

Assays:
[1] = tested on: T lymphocytes (normal mouse spleen cells) stimulated with ConA; assay: Mouse Spleen Cell ConA Blastogenesis Assay; type: cell-based, mouse (C57Bl/6)
[2] = tested on: BUD-8 human skin fibroblasts; assay: Fibroblast assay: proliferation of BUD-8 skin cell fibroblasts; type: cell-based
Protocol: The human skin cell fibroblast line, BUD-8 was obtained prior to each assay from the American Type Culture Collection. This is a fibroblast-like cell line which was originally derived from the normal skin of a person.
BUD-8 cell cultures were expanded for use in 25 cm^2 flasks at 37° C. in an atmosphere of 5% CO2 in air. At approximately 4-5 five day intervals, or when confluence was reached, the cells were passaged. This was accomplished by detaching the cells with a Teflon scraper, washing and reseeding the cells at a lower density into fresh tissue culture flasks.
(§1) The effect of the compound of the present invention on the proliferative capacity of human BUD-8 skin fibroblasts was measured with the use of a ^3 H-thymidine incorporation assay using culture conditions which were similar to those used for a Con-A blastogenesis assay, described previously. Cultured skin cells were detached from the surface of tissue culture flasks mechanically with a Teflon scraper. The cells were washed, resuspended in incubation medium and the viabilities were determined. These cells were then plated in triplicate at a density of 2×10^3 cells/0.1 ml/microtiter well for the proliferation assay and a density of 1×10^4 cells/0.1 ml/microtiter well for the assays to quantitate PGE2 and LTB4. To these cells was added incubation medium containing indomethacin to inhibit prostaglandin production, or nordihydroguaiaretic acid (NDGA) to inhibit leukotriene production (positive controls).
(§2) After 3 days of culture, 1 uCi ^3 H-thymidine was added in a 50 ul volume to each culture well of the microtiter plates. Eighteen hours later, each of the BUD-8 cultures was examined morphologically for evidence of compound-induced toxicity such as cell rounding or granularity. The thymidine-pulsed cells were then precipitated and the amount of ^3 H-thymidine incorporated was counted in a liquid scintillation counter.
The concentrations of the compounds of the invention which were used in these assays were:
The incubation medium used for culturing the BUD-8 cells was RPMI-1640 medium containing 10% fetal bovine serum, 100 ug/ml streptomycin, 100 U/ml penicillin, 0.2M Hepes buffer solution, 5×10^-5 M 2-mercaptoethanol and 2 mM glutamine.

[3] = tested on: PGE2 production by BUD-8 skin cell fibroblasts; assay: PGE2 production by BUD-8 skin cell fibroblasts (radioimmunoassay); type: cell-based, human
Protocol: as §1
After 18 hours of culture, samples of the BUD-8 skin cell supernatants were collected from one set of microtiter plates and frozen until assayed for PGE2 or for LTB4 content using the radioimmunoassays described below.
A radioinmunoassay (New England Nuclear) was used to quantitate PGE2 levels in BUD-8 skin cell culture supernatants. Briefly, into each polypropylene tube were mixed 0.1 ml anti-PGE2, 0.1 ml ^125 1-PGE2 and 0.1 ml PGE2 standard or PGE2 containing sample. The BUD-8 skin culture supernatants were diluted 1:2 prior to addition to the radioimmunoassay. Tubes were refrigerated overnight. A polyethylene glycol solution (16%, 6,000 m.w.) was then added to precipitate immune complexes and the radioactivity in the precipitate was counted in a gamma counter.

BUD-8 skin cells = assay: Morphological examination of BUD-8 cultures for compound-induced toxicity; type: cell-based, human
Protocol: as §2

[4] = ConA 1 ug/ml, compound 100 ug/ml
[5] = ConA 1 ug/ml, compound 300 ug/ml
[6] = ConA 1 ug/ml, compound 750 ug/ml
[7] = ConA 4 ug/ml, compound 300 ug/ml
[8] = ConA 4 ug/ml, compound 750 ug/ml

## CCCCCCCOCCCO[C@@H]1[C@H]2OC(C)(C)O[C@H]2O[C@@H]1[C@H](O)CO [IIg]
[1]; ConA 1 ug/ml, compound 1 ug/ml
  Blastogenic response of normal spleen cells to Con-A: 91,958 ± 15,723 cpm
[1]; ConA 1 ug/ml, compound 10 ug/ml
  Blastogenic response of normal spleen cells to Con-A: 100,734 ± 25,985 cpm
[1]; ConA 1 ug/ml, compound 25 ug/ml
  Blastogenic response of normal spleen cells to Con-A: 108,874 ± 15,534 cpm
[1]; [4]
  % change from control, ConA blastogenic response: -67%
  Blastogenic response of normal spleen cells to Con-A: 23,806 ± 1,727 cpm
[1]; [5]
  % change from control, ConA blastogenic response: -84%
  Blastogenic response of normal spleen cells to Con-A: 11,212 ± 15,288 cpm
[1]; [6]
  % change from control, ConA blastogenic response: -82%
  Blastogenic response of normal spleen cells to Con-A: 12,807 ± 9,049 cpm
[1]; ConA 4 ug/ml, compound 1 ug/ml
  Blastogenic response of normal spleen cells to Con-A: 174,764 × 10^3 cpm
[1]; ConA 4 ug/ml, compound 10 ug/ml
  Blastogenic response of normal spleen cells to Con-A: 168,131 ± 14,911 cpm
[1]; ConA 4 ug/ml, compound 25 ug/ml
  Blastogenic response of normal spleen cells to Con-A: 216,784 ± 27,862 cpm
[1]; ConA 4 ug/ml, compound 100 ug/ml
  Blastogenic response of normal spleen cells to Con-A: 31,073 ± 10,784 cpm
[1]; [7]
  % change from control, ConA blastogenic response: -91%
  Blastogenic response of normal spleen cells to Con-A: 8,268 ± 322 × 10^3 cpm
[1]; [8]
  % change from control, ConA blastogenic response: -79%
  Blastogenic response of normal spleen cells to Con-A: 20,265 ± 12,455 cpm
[1]; Mus musculus, T-lymphocyte, ConA 1 ug/ml, compound 1 ug/ml, read-out: % change from control, ConA blastogenic response
  inhibition at 1 µg/mL: -27%
[1]; Mus musculus, T-lymphocyte, ConA 1 ug/ml, compound 10 ug/ml, read-out: % change from control, ConA blastogenic response
  inhibition at 10 µg/mL: -39%
[1]; Mus musculus, T-lymphocyte, ConA 1 ug/ml, compound 25 ug/ml, read-out: % change from control, ConA blastogenic response
  inhibition at 25 µg/mL: -51%
[1]; Mus musculus, T-lymphocyte, ConA 1 ug/ml, compound 100 ug/ml, read-out: % change from control, ConA blastogenic response
  inhibition at 100 µg/mL: 67%
[1]; Mus musculus, T-lymphocyte, ConA 1 ug/ml, compound 300 ug/ml, read-out: % change from control, ConA blastogenic response
  inhibition at 300 µg/mL: 84%
[1]; Mus musculus, T-lymphocyte, ConA 1 ug/ml, compound 750 ug/ml, read-out: % change from control, ConA blastogenic response
  inhibition at 750 µg/mL: 82%
[1]; Mus musculus, T-lymphocyte, ConA 4 ug/ml, compound 1 ug/ml, read-out: % change from control, ConA blastogenic response
  inhibition at 1 µg/mL: -80%
[1]; Mus musculus, T-lymphocyte, ConA 4 ug/ml, compound 10 ug/ml, read-out: % change from control, ConA blastogenic response
  inhibition at 10 µg/mL: -73%
[1]; Mus musculus, T-lymphocyte, ConA 4 ug/ml, compound 25 ug/ml, read-out: % change from control, ConA blastogenic response
  inhibition at 25 µg/mL: -123%
[1]; Mus musculus, T-lymphocyte, ConA 4 ug/ml, compound 300 ug/ml, read-out: % change from control, ConA blastogenic response
  inhibition at 300 µg/mL: 91%
[1]; Mus musculus, T-lymphocyte, ConA 4 ug/ml, compound 750 ug/ml, read-out: % change from control, ConA blastogenic response
  inhibition at 750 µg/mL: 79%
[2]; 1 ug/ml
  ^3 H-Thymidine uptake by BUD-8 skin cells: 6,096 ± 1,352 cpm
[2]; 10 ug/ml
  ^3 H-Thymidine uptake by BUD-8 skin cells: 3,552 ± 994 cpm
[2]; 25 ug/ml
  ^3 H-Thymidine uptake by BUD-8 skin cells: 4,207 ± 450 cpm
[2]; 100 ug/ml
  ^3 H-Thymidine uptake by BUD-8 skin cells: 4,117 ± 481 cpm
[2]; 300 ug/ml
  ^3 H-Thymidine uptake by BUD-8 skin cells: 2,233 ± 244 cpm
[2]; 750 ug/ml
  ^3 H-Thymidine uptake by BUD-8 skin cells: 3,898 ± 1,692 cpm
[2]; Homo sapiens, Skin fibroblast, 1 ug/ml, read-out: % Effect on BUD-8 proliferation
  inhibition at 1 µg/mL: 1%
[2]; Homo sapiens, Skin fibroblast, 10 ug/ml, read-out: % Effect on BUD-8 proliferation
  inhibition at 10 µg/mL: 42%
[2]; Homo sapiens, Skin fibroblast, 25 ug/ml, read-out: % Effect on BUD-8 proliferation
  inhibition at 25 µg/mL: 32%
[2]; Homo sapiens, Skin fibroblast, 100 ug/ml, read-out: % Effect on BUD-8 proliferation
  inhibition at 100 µg/mL: 33%
[2]; Homo sapiens, Skin fibroblast, 300 ug/ml, read-out: % Effect on BUD-8 proliferation
  inhibition at 300 µg/mL: 64%
[2]; Homo sapiens, Skin fibroblast, 750 ug/ml, read-out: % Effect on BUD-8 proliferation
  inhibition at 750 µg/mL: 37%
[3]; 1 ug/ml
  PGE2 in supernatant: 5.2 ± 0.9 pg PGE2 /50 ul supernatant
  calculated PGE2 produced/10^5 BUD-8 cells: 157 pg per 10^5 cells
[3]; 10 ug/ml
  PGE2 in supernatant: 5.6 ± 0.4 pg PGE2 /50 ul supernatant
  calculated PGE2 produced/10^5 BUD-8 cells: 173 pg per 10^5 cells
[3]; 25 ug/ml
  PGE2 in supernatant: 4.1 ± 0.3 pg PGE2 /50 ul supernatant
  calculated PGE2 produced/10^5 BUD-8 cells: 111 pg per 10^5 cells
[3]; 100 ug/ml
  PGE2 in supernatant: 11.0 ± 1.4 pg PGE2 /50 ul supernatant
  calculated PGE2 produced/10^5 BUD-8 cells: 388 pg per 10^5 cells
[3]; 300 ug/ml
  PGE2 in supernatant: 19.6 ± 1.6 pg PGE2 /50 ul supernatant
  calculated PGE2 produced/10^5 BUD-8 cells: 731 pg per 10^5 cells
[3]; 750 ug/ml
  PGE2 in supernatant: 7.3 ± 0.2 pg PGE2 /50 ul supernatant
  calculated PGE2 produced/10^5 BUD-8 cells: 241 pg per 10^5 cells
[3]; Homo sapiens, Fibroblast, 18 h, 1 ug/ml, read-out: % Effect on PGE2 production
  inhibition at 1 µg/mL: 45%
[3]; Homo sapiens, Fibroblast, 18 h, 10 ug/ml, read-out: % Effect on PGE2 production
  inhibition at 10 µg/mL: 40%
[3]; Homo sapiens, Fibroblast, 18 h, 25 ug/ml, read-out: % Effect on PGE2 production
  inhibition at 25 µg/mL: 57%
[3]; Homo sapiens, Fibroblast, 18 h, 100 ug/ml, read-out: % Effect on PGE2 production
  inhibition at 100 µg/mL: -17%
[3]; Homo sapiens, Fibroblast, 18 h, 300 ug/ml, read-out: % Effect on PGE2 production
  inhibition at 300 µg/mL: -108%
[3]; Homo sapiens, Fibroblast, 18 h, 750 ug/ml, read-out: % Effect on PGE2 production
  inhibition at 750 µg/mL: 22%
BUD-8 skin cells
  cell toxicity in BUD-8 cultures, in words: Evidence of cell toxicity was observed at the two highest concentrations of compound tested; also recorded: Cell toxicity was again observed in cultures which included 300 and 750 ug/ml of the compound; also recorded: Compound induced cell toxicity was observed only at the highest dose level tested
